Measured values reported in PubChem BioAssay AID463074 (Broad Institute, 2010).
The source made the active and inactive calls.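 How the source made its calls: active means AC50 no more than tenfold above the top dose tested, or full inhibition at every dose with a flat fit (cut at about 19 µM in these data); inconclusive means flat curve fit with inhibition between 30% and 70%, or poor fit; inactive means AC50 more than tenfold above the top dose tested.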

Test system: HMLE_sh_eGFP viability, CellTiter-Glo luminescence, 72 h
Assay: viability loss of HMLE_sh_eGFP cells – cell-based, luminescence, counter-screen for HMLE_sh_ECad selective toxicity project, dose response (AID 463074);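 further: counterscreen control line to flag general toxicity for the HMLE_sh_ECad screen; potency for loss of viability as luminescence drops below DMSO wells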

SMILES	AC50
CCC(=O)Nc1nc(C)c(-c2csc(Nc3cccc(O)c3)n2)s1	0.384 µM
COc1ccc(CCNc2ccc(C(CC(N)=O)NC(=O)c3ccc(Br)cc3)cc2[N+](=O)[O-])cc1 (stereo not drawn)	11.7 µM
CC(=O)Nc1ccc(-c2csc(NC(=O)CCCc3cccs3)n2)cc1	0.986 µM
CN1CCN(c2ccc(NC(=O)COc3ccc(Cl)cc3Cl)cc2)CC1	5.38 µM
CCCCCCSc1nsc(NC(=O)CC(C)C)n1	9.2 µM
CCCCCCC[C@@H](C/C=C/CCC(=O)N(C)C/C(=C/Cl)C/C(=C\C(=O)N1CC(OC)=CC1=O)OC)OC	5.38 µM
O=C(Nc1ncc(S(=O)(=O)c2ccc([N+](=O)[O-])cc2)s1)c1ccc2ccccc2c1	3.61 µM
COc1cc(CNC2CCCC2)cc(Cl)c1OCc1ccccc1Cl	6.95 µM
COc1ccc(-c2sc3ccccc3c2C#CCCO)cc1	6.5 µM
CC(NC(=O)c1ccc(N2CCNCC2)c([N+](=O)[O-])c1)C12CC3CC(CC(C3)C1)C2 (stereo not drawn)	6.64 µM
O=C(Nc1ccc2c(c1)CCC2)c1cc(S(=O)(=O)Nc2ccc(F)cc2)c(Cl)cc1Cl	5.38 µM
Cc1ccc(-c2cc(C(=O)NCc3ccc4c(c3)OCO4)no2)cc1	> 19.5 µM (inactive)
COc1cccc(S(=O)(=O)NCc2ccc(C(=O)Nc3cccc(Cl)c3)cc2)c1	4.74 µM
CCNC(=O)c1c(NC(=O)c2cc(-c3cc(C)ccc3O)n[nH]2)sc2c1CCCC2	4.99 µM
CC1(C)Cc2ccccc2C(CSc2ccccc2C(=O)O)=N1	17.2 µM
CC(=O)Nc1ccc(OCC(O)CN2CCN(c3cc(Cl)ccc3C)CC2)cc1 (stereo not drawn)	5.17 µM
Cn1c(-c2ccsc2)c(-c2cccs2)c2cc(-c3ccc4[nH]ccc4c3)ccc21	> 19.5 µM (inactive)
CCCc1c(-c2ccc(O)cc2)nn(-c2ccc(O)cc2)c1-c1ccc(O)cc1	6.1 µM
c1ccc(-c2c(-c3ccccc3)n(Cc3ccco3)c3ncnc(NCCCn4ccnc4)c23)cc1	6.74 µM
C[C@H]1[C@H](C)CC[C@]2(C)CC[C@]3(C)C(=CC(=O)C4[C@@]5(C)CC[C@H](O)C(C)(C)C5CC[C@]43C)[C@H]12 (stereo partly drawn)	3.67 µM
O=C1NC[C@@H](Cc2cccc3ccccc23)N(CCCCC2CCCCC2)C1=O	7.05 µM
CC1(C)C[C@H](O)[C@]2(CO)[C@H](O)C[C@]3(C)C(=CCC4[C@@]5(C)CC[C@H](O)C(C)(C)C5CC[C@]43C)[C@@H]2C1 (stereo partly drawn)	3.63 µM
CN(/N=C/c1cc(Cl)cc(Cl)c1O)C(=S)NC(C)(C)C	2.75 µM
COc1cc2c(cc1OC)C(c1ccc(-c3ccc(Cl)c(Cl)c3)o1)=NCC2	3.99 µM
O=C(Nc1cccc(NC(=O)c2ccc([N+](=O)[O-])o2)c1)c1ccco1	7.23 µM
COc1ccc(/C=C(\C#N)c2c[nH]c3ccccc23)cc1	0.577 µM

SMILES	AC50
COc1cc2c(-c3ccc(O)cc3)nc3c(c(C)nn3-c3ccccc3)c2cc1OC	3.92 µM
Cc1ccc(C(NC(=O)C(C)C)c2cc([N+](=O)[O-])c3cccnc3c2O)cc1 (stereo not drawn)	3.16 µM
Oc1ccc(N=Nc2c(O)ccc3ccccc23)cc1	5.36 µM
CC(C)C[C@H](N)c1nnc(S(=O)(=O)Cc2ccc(F)cc2)o1	8.54 µM
COc1ccc(-c2nc(N)nc(C)c2Oc2ccccc2Br)c(O)c1	5.08 µM
CC1CCN(c2nc(-c3cccnc3)nc3scc(-c4ccccc4)c23)CC1	1.48 µM
Cc1cc(C)c2nc(N3CCCC(C(=O)N4CCN(c5ncccn5)CC4)C3)sc2c1 (stereo not drawn)	11.2 µM
COc1ccc(-c2sc3ccccc3c2-c2ccc(OCCN(C)C)cc2)cc1	3.38 µM
Cc1cc(-c2ccccc2)n(-c2cc(N/N=C/c3ccccc3O)ncn2)n1	0.669 µM
COc1cc(C#Cc2c(-c3cncn3C)n(C)c3ccc(-c4ccc(OC)nc4)cc23)cc(OC)c1	6.61 µM
COc1cc(/C=N/Nc2nc(Nc3ccccc3)nc(-n3nc(C)cc3C)n2)cc(OC)c1OC	3.7 µM
COc1ccc(/C=C/C(=O)c2ccc([N+](=O)[O-])o2)cc1	2.87 µM
C[C@@H]1CC[C@H]2C(=O)N3[C@@H](CC[C@@H](C)[C@@H]3c3ccc(Br)cc3)C(=O)N2[C@H]1c1ccc(Br)cc1	4.41 µM
CCc1cc2cccc(C)c2nc1SCC(=O)c1ccc(NC(C)=O)cc1	4.62 µM
CCCC(=O)NC(c1ccco1)c1cc([N+](=O)[O-])c2cccnc2c1O (stereo not drawn)	7.35 µM
CCN(CC)S(=O)(=O)c1ccc(NC(=O)Nc2cccc(C(F)(F)F)c2)cc1	3.54 µM
O=C(CSc1ncnc2nc[nH]c12)Nc1nnc(SCc2ccc(Cl)c(Cl)c2)s1	7.45 µM
C[C@]12CCC(O)CC1CCC1C2CC[C@]2(C)C(c3cc(C(F)(F)F)n[nH]3)CCC12 (stereo partly drawn)	1.78 µM
O=c1cc(CNc2cc(C(F)(F)F)cc(C(F)(F)F)c2)nc2sccn12	3.39 µM
Clc1ccc(/C=C/c2nc3ccccc3[nH]2)cc1	3.5 µM
Cc1ccc(-c2csc(-c3c[nH]c4ccccc34)n2)c(C)c1	4.19 µM
S=c1[nH]nc(C2CCCCC2)n1/N=C/C(Cl)=C\c1ccccc1	8.35 µM
Cc1cccc(Nc2nc(N)c([N+](=O)[O-])c(N3CC(C)CC(C)C3)n2)c1 (stereo not drawn)	6.75 µM
Cc1c(C2(O)CCCCC2)[nH]c2cc(C(F)(F)F)ccc12	5.83 µM
O=C(Nc1ccccc1Cc1ccccc1)c1ccccc1NS(=O)(=O)c1ccc(Cl)s1	1.84 µM
Cc1cc(N2CCCCC2)n2ncc(-c3ccc(Cl)cc3)c2n1	6.51 µM

SMILES	AC50
CCCCNc1c(-c2cccc(-c3cc(C(C)=O)cs3)c2)nc2ccc(C)cn12	3.48 µM
O=c1[nH]c(/C(Cl)=C/c2cc(Cl)ccc2O)nc2cc(Cl)ccc12	2.37 µM
Cc1[nH]n(-c2ncc(-c3ccc(Cl)cc3)s2)c(=O)c1C(c1ccc(Cl)cc1)C(C#N)C#N (stereo not drawn)	3.86 µM
COc1ccc(/C=C/C(=O)c2ccncc2)c2ccccc12	10 µM
O=C(Nc1cc(S(=O)(=O)Nc2ccc(Cl)cc2)ccc1N1CCCCC1)c1ccc(F)cc1	8.97 µM
C=CCC[C@H](Cc1ccc(F)cc1)C(=O)O[C@H](CNC(=O)[C@@H](CC=C)CC(=O)N(CCO)Cc1ccccc1)c1ccccc1	7.4 µM
CNc1nc(SCc2ccccc2Cl)nc2c1CCCC2	8.77 µM
O=C(Nc1ccc2c(c1)OCO2)c1cc(-c2cccc(O)c2)on1	1.65 µM
N#CCSc1nc2ccccc2c2nc3ccccc3n12	5.1 µM
Cc1cc(NCCCn2ccnc2)n2nc(C)c(-c3ccc(Cl)cc3)c2n1	6.46 µM
Oc1c(Cl)cc(Cl)cc1CNc1ccc(Br)cn1	3.68 µM
O=C(Nc1ccc(S(=O)(=O)N2CCOCC2)cc1)c1ccc([N+](=O)[O-])o1	5.38 µM
CNC[C@H](CC1CCCCC1)NC[C@H](CO)NCCc1cccc(C(F)(F)F)c1	6.71 µM
O=[N+]([O-])c1cccc(-c2cc(-c3cc(Br)ccc3O)[nH]n2)c1	7.53 µM
COc1ccc(OC)c(C(=O)/C=C/c2ccccc2C(F)(F)F)c1	6.67 µM
O=c1c2ccccc2nc(/C=C/c2ccccc2)n1-c1ccccc1O	10.7 µM
CCCCCCCCCc1nc2sc3c(c2c(=O)n1NC(=O)c1ccccc1[N+](=O)[O-])CC(C)(C)OC3	1.21 µM
CCCCc1oc2ccccc2c1C(=O)c1cc(I)c(OCCN(CC)CC)c(I)c1	6.92 µM
O=C1c2c(Br)c(Br)c(Br)c(Br)c2C(=O)N1c1ccccn1	3.65 µM
CC(C)=CCOc1ccc([C@@H]2COc3c(ccc4c3C=CC(C)(C)O4)C2)c(O)c1	3.04 µM
Cc1ccccc1OCC(O)Cn1c2ccccc2c2ccccc21 (stereo not drawn)	6.78 µM
COC(=O)C1=C(c2cccc(C#N)c2)C[C@@H]2CC[C@H]1N2C(=O)NC1Cc2ccccc2C1	> 19.5 µM (inactive)
COc1ccc(-c2sc3ccc(N4CCOCC4)cc3c2C#CCCO)cc1	4.73 µM
COc1cc(SC#N)ccc1N=Cc1c(C)[nH]n(-c2ccc(C)cc2)c1=O	5.99 µM
O=C(Nc1ccc(OCC(F)(F)C(F)F)c(C(F)(F)F)c1)c1ccc(Cl)cc1	3.19 µM
Cc1cccc(NC(=O)c2nc[nH]c2C(=O)NC2CCN(C(=O)OC(C)(C)C)CC2)c1	6.79 µM

SMILES	AC50
CCn1c2ccccc2c2cc(NC(=O)c3cccc([N+](=O)[O-])c3)ccc21	3.63 µM
O=c1c2ccccc2nc(/C=C/c2ccccc2F)n1-c1ccccc1O	6.44 µM
O=C(Nc1cccc(Cl)c1)Nc1sccc1-c1nc2ccccc2s1	> 19.5 µM (inactive)
COc1ccc(OC)c(NC(=O)c2nc(S(=O)(=O)Cc3ccccc3)ncc2Cl)c1	6.74 µM
CC1=C(CO)C(=O)OC([C@@H](C)C2CC[C@H]3C4C[C@H]5O[C@]56[C@@H](O)C=CC(=O)[C@]6(C)C4CC[C@]23C)C1 (stereo partly drawn)	1.62 µM
Oc1ccccc1N1CCN(c2ncnc3sc(-c4ccccc4)cc23)CC1	3.53 µM
CC(C)C[C@H]1CN=C(Nc2ccccc2)N1CC1CCC(C(C)(C)C)CC1 (stereo partly drawn)	5.34 µM
CC(C)(C)C1CCc2c(sc(NC(=O)CSc3ncn[nH]3)c2C#N)C1 (stereo not drawn)	4.79 µM
COc1cc(-c2noc(C)c2/C=C/c2ccc(OC(C)=O)cc2)cc(OC)c1OC	0.292 µM
Cn1c(/C(C#N)=C(\O)COc2ccc3ccccc3c2)nc2ccccc21	0.359 µM
CCCCCC(=O)Nc1nc(C)c(-c2csc(Nc3cc(OC)ccc3OC)n2)s1	2.11 µM
CCN1CCN(c2ccc(NC(=O)CCc3c(C)nc4c(-c5ccc(F)cc5)c(C)nn4c3C)cc2)CC1	5.22 µM
CC(=O)Oc1ccc(-c2ccc(C(=O)Nc3cccc(S(=O)(=O)N4CCOCC4)c3)cc2)cc1	1.46 µM
C=C(C)COc1ccc(-c2nc(N)ncc2-c2ccc(Cl)cc2)c(O)c1	4 µM
COc1cc(/C=C(/C#N)c2nc3ccccc3[nH]2)ccc1OCC(=O)Nc1ccccc1C	1.06 µM
Cc1ccc(S(=O)(=O)Nc2ccc(-c3csc(-c4ccccc4)n3)cc2)cc1	6.85 µM
Nc1cc(-c2ccc(OC(F)(F)F)cc2)nn1-c1ccc(Cl)c(Cl)c1	5.83 µM
CCOC(=O)c1c(C)oc2c(F)c(F)c(F)c(F)c2c1=O	2.02 µM
O=C(Nc1ccccc1)Nc1cc(Cl)cc(Cl)c1	5.13 µM
Cc1cccc(C(=O)NNC2=C(C(=O)C(F)(F)F)CCC2)c1O	3.91 µM
COC(=O)c1c(NC(=O)Cc2cccs2)sc2c1CCC(C)C2 (stereo not drawn)	9.75 µM
Cc1cc(C)cc(N2C(=O)NC(=O)/C(=C/c3cccn3-c3ccc(Cl)cc3)C2=O)c1	2.84 µM
Oc1ccc(Br)cc1-c1cc(-c2ccccc2)n[nH]1	6.31 µM
CCc1c(C)sc2nc(C(C)C)nc(SCC(=O)N3CCc4ccccc4C3)c12	4.22 µM
CCN(CC)c1ccc(S(=O)(=O)Nc2cc(Cl)ccc2Cl)cc1NC(=S)NC(=O)C1CCCC1	2.06 µM
